# Measured values reported in a melting point compilation (Tetko et al.; mined from patent text by program, amines drawn as free bases though some values may be those of a salt).
row,SMILES,melting point
1,O=C(NCCC1CC2CCC1C2)n1cc(F)c(=O)[nH]c1=O (stereo unspecified),128 to 130 °C
2,NC(=NCCN(Cc1ccc(F)cc1)c1ccccn1)NCCCc1c[nH]cn1,60 to 63 °C
3,CC(C)(C)C1(O)CCN(CC23CC(c4ccc(Cl)cc42)c2ccc(Cl)cc23)CC1,194 to 196 °C
4,O=c1[nH]c2[nH]c3ccccc3c2c2ccccc12,> 310 °C
5,CNC(=O)N1CCC(Oc2ccc([N+](=O)[O-])cc2)(c2ccccc2)CC1,110 to 115 °C
6,CC(C)(C)[Si](C)(C)Oc1ccccc1-c1cc(-c2ccc([N+](=O)[O-])cc2)c(C#N)c(N)n1,168 to 169 °C
7,O=C(CN1CCCC1=O)NCC(=O)Nc1ccncc1,243 to 245 °C
8,CC(CC(=O)O)NC(=O)c1ccccc1 (stereo unspecified),150 to 152 °C
9,NC1N=C(N2CCCCC2)c2ccccc2NC1=O (stereo unspecified),103 to 105 °C
10,CCCc1nc(C(N)=O)c2n1-c1ccc(Cl)cc1C(c1ccccc1Cl)=NC2,298 to 300 °C
11,CCCc1c(OCCCc2ccc3cc(OC)c(OC)cc3c2)ccc(C(=O)OCc2ccccc2)c1O,94 to 96 °C
12,COC(=O)CCNCc1ccc(-c2cc3ncnc(Nc4ccc5[nH]ccc5c4)c3s2)cc1,105 to 118 °C
13,O=C(O)c1ccc(Cc2ccc(-c3ccccc3-c3nnn[nH]3)cc2)c2[nH]c(OCC(F)(F)F)nc12,204 to 206 °C
14,CC(=O)OC1CSC(Oc2cccnc2-c2ccc(C)o2)C(OC(C)=O)C1OC(C)=O (stereo unspecified),128 °C
15,Oc1nc2cc(F)ccc2n2c(C(F)(F)F)nnc12,298 to 302 °C
16,CCOC(=O)c1ccc2[nH]c(C(=O)OCc3ccccc3)cc2c1,123 °C
17,CCOC(=O)C1=C(N)N=C(OCC)C(C(=O)OCC)C1c1ccc(C)cc1 (stereo unspecified),119 °C
18,O=C(Nc1cccc(O)c1)NC1N=C(c2ccccc2F)c2ccccc2N(CC(=O)N2CC3CCC(CC3)C2)C1=O (racemic),184 to 185 °C
19,O=C(O)c1ccc(OC23CC4CC(CC(C4)C2)C3)cc1,223 to 226 °C
20,CCOC(=O)NC(=O)P(=O)(OCC)OCC,57 to 64 °C
21,CC(C)CC(=O)OC1(C(=O)CO)CCC2C3CC(C)C4=CC(=O)C=CC4(C)C3C(O)CC21C (stereo unspecified),164 °C
22,CN[C@@]1(C)CCN(c2c(-c3ccccc3)c(C)c(C#N)c3nc(C(=O)N(C)C)oc23)C1,172 to 174 °C
23,OC1CSC(Oc2ccc(-c3ccoc3)nc2)C(O)C1O (stereo unspecified),132 °C
24,O=C(NCc1ccccc1)c1ccccc1-c1ccccc1CNS(=O)(=O)c1cccc(F)c1,147 °C
25,Cc1cccc(-c2n[nH]cc2-c2ccnc(-c3ccc(-n4ccnc4C)cc3)c2)n1,128 °C
26,Cc1cc2c(cc1Br)N(C1CC1)C=NS2(=O)=O,219 to 220 °C

row,SMILES,melting point
1,CCOC(=O)CN(C)S(=O)(=O)c1c(C(=O)OC)sc2cc(C)ccc12,86 to 87 °C
2,CNCC(O)C1=CNC2C=CC=CC12 (stereo unspecified),117 to 120 °C
3,O=c1cc(C(F)(F)C(F)(F)F)nc[nH]1,122 to 126 °C
4,COC(=O)c1c(C)cc2cc(OC)c(OC)cc2c1-c1ccnc(Br)c1,148 to 150 °C
5,COC(=O)C1(C(F)CCCCOc2ccc(Cl)cc2)CO1 (stereo unspecified),76 to 78 °C
6,CCOC(=O)c1c(CN(CC)CC)nc2ccc(Cl)cc2c1-c1ccccc1,107 to 108 °C
7,O=C(Nc1n[nH]c(=S)s1)N[C@@H](Cc1c(F)c(F)c(F)c(F)c1F)C(=O)N1CCN(c2ccccn2)CC1,233 to 235 °C
8,CN1CCN(c2ccc(Nc3ncc4ccc(-c5ccc(S(C)(=O)=O)cc5)n4n3)cc2F)CC1,227 °C
9,CCCC12CCC(=O)C=C1c1c(cc(CCC(=O)O)c(Cl)c1Cl)C2 (stereo unspecified),201 to 203 °C
10,O=C1CC(=O)[C@H](CC2CCCCC2)N1,165 to 167 °C
11,OC(COCc1ccc(Br)cc1)Cn1ccnc1 (stereo unspecified),98 to 100 °C
12,O=C(O)CCc1cc(Br)c2c(c1)CCO2,117 to 118 °C
13,COc1ccc(Cl)cc1CC1CNC(=O)CN(C(=O)Nc2cccc(NC(C)=O)c2)C1=O (stereo unspecified),130 to 131 °C
14,C[C@@H](NC(=O)OCc1ccccc1)[C@H](O)C(=O)O,156 to 158 °C
15,CCOCCOC(=O)C1=C(C)NC(C)=C([N+](=O)[O-])C1c1cccc([N+](=O)[O-])c1 (stereo unspecified),140 °C
16,NS(=O)(=O)c1ccc(-c2cc3cccccc-3c2-c2ccccc2)cc1,169 to 170 °C
17,Cc1cc(C)c(C(=O)P(=S)(C(=O)c2c(C)cc(C)cc2C)c2ccccc2)c(C)c1,123 °C
18,CC(=O)Oc1c(C(C)C)cc(-c2c3ccccc3cc3sc(C)c(C)c23)cc1C(C)C,243 to 245 °C
19,Cc1cc(N)ccc1-c1ccc(-c2ccc(N)cc2C)s1,86 to 88 °C
20,Cc1ccc(Oc2ccc(C(=O)O)cc2)cc1,175 °C
21,CCN(CC)C(=O)COc1nc2cc(OC)cc(OC)c2cc1-c1ccc(OC)cc1,146 to 147 °C
22,CN(C)C(=O)Nc1cc(C(F)(F)F)on1,126 °C
23,CCOCc1nc2c(N)nc3cc(OCc4ccccc4OC)ccc3c2n1CC(C)C,206 to 207 °C
24,Cc1cc(N)c(NC(=O)OC(C)(C)C)cc1C(F)(F)F,144 °C
25,CC(Cc1cccnc1)n1nnc2cc3c(=O)n(C4CC4)nnc3cc2c1=O (stereo unspecified),160 to 161 °C

# The remaining lines, values ahead:
row,melting point,SMILES
1,208 to 210 °C,Cc1cc2c(-c3ccccc3Cl)c(NC(=O)Nc3cccc(Cl)c3)c(=O)n(C)c2cc1C
2,223 °C,O=C(c1ccccc1)c1nc2cc(C(c3ccccc3)n3ccnc3)ccc2[nH]1 (stereo unspecified)
3,163 to 164 °C,CCCn1c(COCC)nc2c(N)nc3cc(OC4CCN(C(=O)NC(C)C)CC4)ccc3c21
4,166 to 168 °C,COc1nc(NN)c2c(OC)c(OC)cc(Cl)c2n1
5,82 to 83 °C,Nc1ccccc1Nc1ccccc1F
6,207 to 210 °C,Cc1cccc(Nc2cc(Nc3ccc(OCC#N)cc3)ncn2)c1
7,108 to 110 °C,CSc1nn(-c2c(Cl)cc(Cl)cc2Cl)c(N(C)C)c1CO
8,81 to 85 °C,Nc1cccc2c1CNC2
9,83 to 85 °C,CSCC[C@H](NC(=O)[C@@H](N)CC(C)C)[C@@H](O)c1nccs1
10,194 to 196 °C,COc1ccc(-c2c([N+](=O)[O-])c3ccc(OC)cc3c(=O)n2CC#N)cc1
11,172 to 180 °C,COC(=O)c1ccc2c(c1)CN(C(=O)c1ccc(-c3ccccc3)cc1)C2
12,248 to 250 °C,CCCn1c(=O)c2c(nc(C=Cc3cc(OC)c(OC)c(OC)c3S(=O)(=O)O)n2C)n(CCC)c1=O
13,222 to 224 °C,CCOC(=O)CCCOc1ccc(-c2cc(C#N)c(=O)[nH]c2C)cc1
14,130 to 131 °C,COc1cc2ccn(C(=O)c3ccc(-c4ccc(-c5noc(C)n5)cc4C)cc3)c2cc1OCCN(C)C
15,245 to 246 °C,CC(C)(C)C(=O)OCCOCn1cnc2c(=O)[nH]c(N)nc21
16,171 to 172 °C,CNC(=O)c1cnc2ccccc2c1-c1ccccn1
17,234 to 237 °C,Fc1cc(F)c2c(Nc3c(Cl)ccc4c3OCO4)ncnc2c1
18,113 to 115 °C,COC(=O)Cc1cc2c(c([N+](=O)[O-])c1)NCC2
19,206 °C,CC(C)c1ccc2nc(C(F)(F)F)c(C(=O)O)c(O)c2c1
20,> 300 °C,CCc1[nH]n(C2CCCC2)c2nc(-c3ccc(-n4ccnc4)cc3)nc(=O)c1-2
21,98 to 101 °C,Cc1cc(CBr)cc(Oc2nc(Cl)nc(Cl)c2C(C)C)c1
22,71 °C,CCCCS(=O)(=O)ON=C(C#N)c1ccc(OC)cc1
23,100 °C,N#Cc1cccc(C=CC=O)c1
24,167 to 169 °C,CCCc1nc2c(N)nc(C)c(C)c2n1CCCCS(N)(=O)=O
25,179 °C,O=C(NO)c1cccnc1Cl

row,melting point,SMILES
1,101 to 104 °C,CC(C)(S)CNC(=O)CCCC(=O)O
2,204 to 206 °C,NC(=O)OCCn1cc(C(=O)O)c(=O)c2cc(F)c(N3CCNCC3)c(F)c21
3,143 to 145 °C,Cc1ccc(-c2ccc3c(c2)C=C(C(=O)Nc2ccc(CN(C)C4CCOCC4)cc2)CO3)cc1
4,138 to 140 °C,Nc1ccc(Cn2cnnn2)cc1
5,77 to 79 °C,CCCCCc1c(C(C)C)nc(C(C)C)c(C(C)CO)c1-c1ccc(F)cc1 (stereo unspecified)
6,97 to 99 °C,CCOC(=O)N1CCC(Nc2cc(OC)ccc2N)CC1
7,70 to 72 °C,CCOC(=O)c1c([N+](=O)[O-])ccc(OC)c1OC
8,127 to 136 °C,COC(=O)c1cc(N2CCC2)c(C(F)(F)F)cc1[N+](=O)[O-]
9,238 to 240 °C,O=C1CCC(N2C(=O)c3cccc(OCc4ccccc4)c3C2=O)C(=O)N1 (stereo unspecified)
10,194 °C,CC(=O)Nc1ccc(NC(=NC#N)Oc2ccccc2)cn1
11,> 270 °C,CCn1c(=O)c2[nH]c(/C=C/c3cc(OC)c4c(c3)OCO4)nc2n(CC)c1=O
12,106 to 107 °C,COc1ccc(-n2nc(C(C)C)cc2-c2ccc(OCCNC(N)=O)cc2)cn1
13,61.7 °C,O=C(N[C@@H](CSc1ccccc1)[C@H]1CO1)OCc1ccccc1
14,110 to 112 °C,COC(=O)C(C(=O)OC)C(Cc1cc(C(F)(F)F)ccc1[N+](=O)[O-])c1ccc(OC)cc1 (stereo unspecified)
15,171 to 173 °C,Cn1ncnc1COc1nn2c(-c3ccccc3F)nncc2c1-c1cc(F)cc(F)c1
16,185 °C,O=C(O)c1ccc(Oc2ccc(Oc3ccccc3)cc2)cc1
17,105 to 106 °C,COc1cccc(C(=O)N2CCCC(=O)c3ccc(Cl)cc3CCC2=O)c1
18,66 to 70 °C,CCCCCCCCCOP(=O)(CNC(=O)Nc1c(C(C)C)cccc1C(C)C)OCC (stereo unspecified)
19,111 to 113 °C,COc1ccc(F)c2c1C[C@@H](NO)CO2
20,200 to 205 °C,Cn1cc(CS(C)(=O)=O)c(=O)c2cc(F)ccc21
21,110 to 112 °C,N#Cc1cccc(Oc2ccccc2)c1C#N
22,148 to 150 °C,COC(=S)OCC(COC(=S)OC)OCn1cnc2c(=O)[nH]c(N)nc21
23,162 to 164 °C,Fc1ccc(-c2[nH]cc(CCCN3CCNCC3)c2-c2ccncc2)cc1
24,110 to 120 °C,NCC(=O)N1CCN(C(=O)c2cc(C(F)(F)F)cc(C(F)(F)F)c2)[C@H](Cc2c[nH]c3ccccc23)C1
25,83 to 84 °C,CCN(CC)C(=O)n1cc(Br)c(S(=O)(=O)c2cc(C)ccc2C)n1
